From the supplement of paper PMC4723716
Counter-ions that a name gives are not always drawn.

Tested on: Plasmodium falciparum NF54 gametocytes
Details: 384, incubation time: 72 h
Procedure: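 Known antimalarials and MMV control compounds in dose response against each stage (I–V) […] The fitted EC50 is reported as IC50 in µM; '>' marks the top dose reached without a curve.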

[1] = gametocyte stage: Stage I Dose Response IC50 (µM), assay protocol: SaLSSA
[2] = gametocyte stage: Stage II Dose Response IC50 (µM), assay protocol: SaLSSA
[3] = gametocyte stage: Stage III Dose Response IC50 (µM), assay protocol: SaLSSA
[4] = gametocyte stage: Stage IV Dose Response IC50 (µM), assay protocol: SaLSSA
[5] = gametocyte stage: Stage V Dose Response IC50 (µM), assay protocol: SaLSSA
[6] = gametocyte stage: Stage I Dose Response IC50 (µM), assay protocol: TSSA
[7] = gametocyte stage: Stage II Dose Response IC50 (µM), assay protocol: TSSA
[8] = gametocyte stage: Stage III Dose Response IC50 (µM), assay protocol: TSSA
[9] = gametocyte stage: Stage IV Dose Response IC50 (µM), assay protocol: TSSA
[10] = gametocyte stage: Stage V Dose Response IC50 (µM), assay protocol: TSSA

Compound | IC50 of gametocyte viability [1] [µM] | IC50 of gametocyte viability [2] [µM] | IC50 of gametocyte viability [3] [µM] | IC50 of gametocyte viability [4] [µM] | IC50 of gametocyte viability [5] [µM] | IC50 of gametocyte viability [6] [µM] | IC50 of gametocyte viability [7] [µM] | IC50 of gametocyte viability [8] [µM] | IC50 of gametocyte viability [9] [µM] | IC50 of gametocyte viability [10] [µM]
Nc1ccc(S(=O)(=O)Nc2ncccn2)cc1 [Sulfadiazine] | > 12.5 | > 12.5 | > 12.5 | > 12.5 | > 12.5 |  |  |  |  | 
CC[C@H](C)[C@H](NC(=O)[C@H]([C@@H](C)CC)N(C)C(C)=O)C(=O)N[C@H](C(=O)N[C@@H](CC(C)C)C(=O)[C@@]1(C)CO1)[C@@H](C)O [Epoxomycin] |  |  |  |  | 0.0128 |  |  |  |  | 
C[C@H]1[C@H](OC(=O)CCC(=O)O)O[C@@H]2O[C@@]3(C)CC[C@H]4[C@H](C)CC[C@@H]1[C@@]24OO3 [Artesunate] |  |  |  |  |  | 0.00565 | 0.00577 | 0.0172 | 0.02 | > 12.5
C[C@H]1[C@H](N2CCS(=O)(=O)CC2)O[C@@H]2O[C@@]3(C)CC[C@H]4[C@H](C)CC[C@@H]1[C@@]24OO3 [Artemisone] [listing 1 of 2 here] | 0.00277 | 0.00176 | 0.00339 | 0.00421 | > 12.5 |  |  |  |  | 
C=C(NC(=O)C(=C)NC(=O)c1csc(C2=N[C@@H]3c4csc(n4)[C@H]4NC(=O)c5csc(n5)[C@H]([C@](C)(O)[C@@H](C)O)NC(=O)[C@H]5CSC(=N5)/C(=C/C)NC(=O)[C@H]([C@@H](C)O)NC(=O)c5csc(n5)[C@]3(CC2)NC(=O)[C@H](C)NC(=O)C(=C)NC(=O)[C@H](C)NC(=O)[C@H]([C@@H](C)CC)N[C@@H]2C=Cc3c([C@H](C)O)cc(nc3[C@H]2O)C(=O)O[C@@H]4C)n1)C(N)=O [Thiostrepton] |  |  |  |  |  | 4.04 | 4.81 | 3.75 | 3.41 | 3.42
CC(=O)N(O)CCCCCNC(=O)CCC(=O)N(O)CCCCCNC(=O)CCC(=O)N(O)CCCCCN [Deferoxamine mesylate salt] | > 12.5 | > 12.5 | > 12.5 | > 12.5 | > 12.5 |  |  |  |  | 
CCN(CC)Cc1cc(Nc2ccnc3cc(Cl)ccc23)ccc1O [Amodiaquine] | 0.0118 | 0.00579 | 0.0961 | 2.46 | 1.78 | 0.0134 | 0.0088 | 0.107 | 5.4 | > 9.39
C[C@H]1c2cccc(O)c2C(O)=C2C(=O)[C@]3(O)C(O)=C(C(N)=O)C(=O)[C@@H](N(C)C)[C@@H]3[C@@H](O)[C@@H]21 [Doxycyclin] |  |  |  |  |  | > 12.5 | > 12.5 | > 12.5 | > 12.5 | > 12.5
CC(=O)N[C@@H](C(=O)O)C(C)(C)S [N-acetyl-D-penicillamine] | > 12.5 | > 12.5 | > 12.5 | > 12.5 | > 12.5 |  |  |  |  | 
CC(C)(C)NCc1cc(Nc2ccnc3cc(Cl)ccc23)c2c(c1O)CCCC2 [Naphthoquine] |  |  |  |  |  | 0.0234 | 0.0128 | > 4.17 | > 4.17 | > 4.17
C=C[C@H]1CN2CC[C@H]1C[C@@H]2[C@@H](O)c1ccnc2ccc(OC)cc12 [Quinidine] |  |  |  |  |  | 0.18 | 0.275 | 2.83 | > 12.5 | > 12.5
CNc1ccc(N(C)C(=O)c2cn3c(-c4ccc(Cl)cc4)cnc3cn2)cc1 [KDU691] | 0.532 | 0.565 | 0.354 | 0.237 | 0.15 |  |  |  |  | 
C[C@H]1[C@H](N2CCS(=O)(=O)CC2)O[C@@H]2O[C@@]3(C)CC[C@H]4[C@H](C)CC[C@@H]1[C@@]24OO3 [Artemisone] [listing 2 of 2 here] |  |  |  |  |  | 0.00264 | 0.00244 | 0.00605 | 0.00548 | > 7.85
OC(c1cc(C(F)(F)F)nc2c(C(F)(F)F)cccc12)C1CCCCN1 (stereo unspecified) [Mefloquine (+ RS)] |  |  |  |  |  | 0.0512 | 0.0471 | 0.0585 | 1.64 | 6.34
CCCCN(CCCC)CC(O)c1cc(Cl)cc2c1-c1ccc(Cl)cc1/C2=C/c1ccc(Cl)cc1 (stereo unspecified) [Lumefantrine] | 0.0128 | 0.0131 | 0.015 | 0.599 | 0.0523 |  |  |  |  | 
COc1cc(C)c2c(Oc3cccc(C(F)(F)F)c3)c(OC)cc(NC(C)CCCN)c2n1 (stereo unspecified) [Tafenoquine] |  |  |  |  |  | 5.3 | 7.55 | 7.03 | 6.87 | 0.919
C[C@@H]1CC[C@H]2[C@@H](C)C(=O)O[C@@H]3O[C@@]4(C)CC[C@@H]1[C@]32OO4 [Artemisinin] |  |  |  |  |  | 0.027 | 0.0188 | 0.0218 | 0.0322 | > 12.5
CC(C)NC(=N)NC(=N)Nc1ccc(Cl)c(Cl)c1 [Chlorproguanil hydrochloride/1.11] | 9.35 | 7.79 | 7.87 | 5.21 | 4.8 | > 12.5 | > 12.5 | 8.37 | 7.57 | > 11
CC(C)NC(=N)NC(=N)Nc1ccc(Cl)cc1 [proguanil hydrochloride/1.14] | > 12.5 | > 12.5 | > 12.5 | > 12.5 | > 12.5 |  |  |  |  | 
CC1Cc2c([nH]c3cc(F)c(F)cc23)C2(N1)C(=O)Nc1ccc(Cl)cc12 (stereo unspecified) [KAF246] | 0.00139 | 0.00186 | 0.0021 | 0.00177 | 0.00235 |  |  |  |  | 
N=C(N)c1ccc(OCCCCCOc2ccc(C(=N)N)cc2)cc1 [Pentamidine] |  |  |  |  |  | 0.713 | 0.878 | 1.19 | 1 | 2.36
COc1cc(N[C@H](C)CCCN)c2nccc(C)c2c1Oc1ccc(Cl)c(Cl)c1 [NPC-1161B] | 2 | 2.02 | 3.51 | 3.6 | 2.86 |  |  |  |  | 
CN(C)[C@@H]1C(O)=C(C(N)=O)C(=O)[C@@]2(O)C(O)=C3C(=O)c4c(O)cccc4[C@@](C)(O)[C@H]3C[C@@H]12 [Tetracycline] | > 12.5 | > 12.5 | > 12.5 | > 12.5 | > 12.5 |  |  |  |  | 
CN(C(=O)c1cn2c(-c3ccc(C#N)cc3)cnc2cn1)c1ccc(C(F)(F)F)cc1 [KAI407] | 0.593 | 0.636 | 0.415 | 0.329 | 0.156 |  |  |  |  | 
